Where no end group is shown, it is not given here.
Key:
peritoneal cells = experiment: Viability of peritoneal cells incubated in vitro with fibrils; assay type: cell-based, C57BL/6 mice; conditions: 1.0-0.125 μg/well, 30 or 120 minutes, PI staining
Method: FIG. 3. […] Peritoneal cells were isolated by lavage of C57BL/6 mice, aliquoted 500,000 cells per well of a 96 well round bottomed plate and treated with 1.0, 0.5, 0.25, 0.125 μg/well of Amylin 28-33 for 30 minutes or 120 minutes in DMEM with 10% FCS. At the end of the incubation the cells were spun, supernatant aspirated, and the cells were stained with rat anti-mouse CD11b (Pacific Blue), CD5 (PE), CD19 (APC), and incubated for 30 minutes on ice. The cells were washed once, aspirate transferred to FACS tubes, PI added, and analyzed by flow cytometry.

μMT mice with EAE = experiment: EAE in B cell-deficient μMT mice, with or without adoptive transfer of B-1a lymphocytes; assay type: in vivo; conditions: 10 μg daily i.p., no cell transfer
Method: Induction of active EAE in mice by immunization with MOG and adjuvant. EAE was induced in female wild type C57Bl/6 mice or μMT and IL-10 deficient mice on C57B/6 background (Jackson Laboratories) by procedures previously described. Briefly, EAE was induced at 9 weeks of age by subcutaneous immunization in the flank with an emulsion containing 200 μg myelin oligodendrocyte glycoprotein35-55 (MOG35-55; […] (SEQ ID NO: 1065)) in saline and an equal volume of complete Freund's adjuvant containing […] mycobacterium tuberculosis H37RA (Disco Laboratories). All mice were given 400 ng of pertussis toxin (List Biological) intraperitoneal (i.p.) at 0 and 48 h post-immunization. The signs of neurological impairment were scored as follows: 0, no clinical disease; 1, tail weakness; 2, hindlimb weakness; 3, complete hindlimb paralysis; 4, hindlimb paralysis and some forelimb weakness; 5, moribund or dead. […] For intranasal inoculation, 10 μg of Amylin 28-33 in 10 μl PBS was gradually released into the nostrils of anesthetized mice. All animal protocols were approved by institutional IACUC.
B-1a lymphocytes were purified by cell sorting of peritoneal cells from wild type C57Bl/6 mice. […] Mice were examined daily for clinical signs of EAE and were scored on a five point scale described above.

[1] = system: B-1a lymphocytes and LPMs; experiment: Bioluminescence imaging of trafficking of adoptively transferred luc+ B-1a lymphocytes and LPMs; assay type: in vivo, C57BL/6 albino mice
Method: B-1a lymphocytes and peritoneal MΦs were purified by cell sorting of peritoneal cells isolated from luciferase transgenic mice ((B6.FVB-Ptprca Tg(CAG-luc,-GFP)L2G85Chco Thy1a/J), which express the CAT-luc-eGFP, L2G85 transgene). In the initial experiment 2×10^5 and 1×10^5 B-1a lymphocytes were injected in the peritoneum of C57BL/6 female albino mice (B6(Cg)-Tyr^c-2J/J), followed by injection of 10 μg of Tau 623-628 to activate the lymphocytes, and 0.3 mg/g body weight of luciferin substrate (D luciferin firefly L-8220 Biosynth) to initiate the bioluminescence imaging. The location of the luciferase expressing cells was measured by imaging every 5 minutes for 75 minutes.
To confirm the diminution of luminescence was due to the trafficking of the luc^+ cells, and not the degradation of the luciferin, two C57BL/6 albino mice were injected with […] peritoneal MΦs, a third with 2×10^5 B-1a lymphocytes, and fourth mouse serving as a BLI control was injected with luciferin only. The mice were subsequently injected with 10 μg of Tau 623-628 and 0.3 mg/gram of luciferin. Bioluminescence was measured immediately after the injection of luciferin and 5 minutes later. After thirty minutes the mice were reinjected with luciferin and the resultant luminescence measured. […] Imaging data were analyzed and quantified with Living Image software 4.4 (Xenogen).
Amyloidogenic peptides induce exodus of B-1a lymphocytes and LPM from the peritoneal cavity. […] The location of the luciferase expressing cells was monitored by imaging the mice every 5 minutes for 75 minutes (FIG. 5, top left). The diffuse distribution of the luminescence, corresponding to the peritoneal cavity, seen at early times, was reduced in intensity over time, with focal regions of intensity appearing to localize in inguinal lymph nodes beginning at 35 minutes (FIG. 5, top left). […]
To better assign the basis of the reduction of luminescence to the migration of the luc^+ cells, a second experiment was performed with four recipient mice. […] Bioluminescence was measured immediately after the injection of luciferin and 5 minutes later. […]

PBMCs = experiment: Type 1 IFN response and cytokine production in PBMCs of treated mice; conditions: mouse, in vivo
[2] = system: B-1a lymphocytes and peritoneal MΦs (SPM, LPM); experiment: Differential gene expression (microarray, qPCR) in sorted B-1a lymphocytes and peritoneal MΦs after i.p. injection; assay type: in vivo, C57BL/6 mice; conditions: 10 μg i.p., cells isolated 30-40 minutes after injection
Method: Total RNA was extracted from FACS purified B-1a lymphocytes and peritoneal MΦs pooled from 3-6 C57BL/6 female mice injected with 10 μg of LPS, Tau 623-628, Amylin 28-33, or PBS using Trizol reagent and the Qiagen RNeasy micro kit. First strand cDNA was synthesized with 30-50 ng of total RNA using Superscript III first strand synthesis supermix for qRT-PCR. QPCR assays were performed using the 7900HT Fast Real Time PCR System (Applied Biosystems), and the Taqman Gene Expression Arrays (Applied Biosystems) using commercially available primers (ABI). All assays were performed according to manufacturer's instructions. The comparative Ct method for relative quantification (ΔΔCt) was used to compare gene expression. […]
Gene expression changes associated with treatment with LPS, Amylin 28-33, and Tau 623-628, were quantified using a microarray (SurePrint G3 Mouse; Agilent Technologies). […] Analysis and quantitation of the data were done using GeneSpring and Ingenuity software.
To confirm and increase the understanding of how the fibrils are activating the peritoneal cells, differential gene induction in purified B-1a and LPMs was analyzed. […] B-1a lymphocytes (CD19^hiCD5^+CD23^−) and LPMs (CD11b^hi MΦs) from the four groups of three mice were sorted into Trizol, RNA extracted, and gene expression measured using a murine Agilent whole genome expression microchip. […]

[3] = system: peritoneal cells (B-1a and B-2 lymphocytes, LPMs, T lymphocytes, mast cells); experiment: Binding and endocytosis of FITC-Tau fibrils by peritoneal cells after i.p. injection (confocal microscopy, flow cytometry); assay type: in vivo, C57BL/6 mice; conditions: 10 μg i.p., peritoneal cells stained for CD19 and F4/80
Method: C57B/6 female mice were injected with FITC-Tau 623-628, and peritoneal cells were isolated after 10 minutes, washed, stained with rat antimouse CD19 (PE), F4/80 (Alexa Fluor 647), and DAPI, washed, and plated on polylysine coated microscope slides. Cells were visualized using a Leica TCS SP8 white light laser confocal microscope.
Peptides were synthesized using solid phase techniques and commercially available Fmoc amino acids, resins, and reagents (PE Biosystems, Foster City Calif., and Bache, Torrance, Calif.) on an Applied Biosystems 433A peptide synthesizer as previously described. Wender et al. (2000) Proc. Natl. Acad. Sci. USA 97(24):13003-13008. […] The molecular weight of the peptides was confirmed using matrix assisted laser desorption mass spectrometry. To prevent excess amounts of fluorophore in the fibrils, Tau 623-628 was mixed at a ratio of 10:1 with an analog with FITC attached to the amino terminus of Tau 623-628 with an amino caproic acid linker. The resulting fibril mixture is referred to in the text as FITC-Tau.
Peritoneal cavity cells were obtained by flushing the peritoneal cavity with 10 ml of cold PBS containing 0.1% bovine serum albumin and 5 mM EDTA. […]

Substance	cell viability / cell death of peritoneal cells in vitro (peritoneal cells)	therapeutic effect on paralytic signs of EAE in μMT mice (μMT mice with EAE)	increase in luminescence over inguinal lymph nodes ([1]; 60 min compared with 5 min, luc+ LPMs, 10 μg i.p.) [fold]	time at which focal luminescence begins to localize in inguinal lymph nodes ([1]; luc+ B-1a lymphocytes, 10 μg i.p.) [min]	photons per second in the abdominal region ([1]; luc+ B-1a lymphocytes, over 75 minutes)	type 1 IFN induction (PBMCs)	pattern of gene expression (microarray heatmap) [2]	binding and endocytosis of fibrils by B cells and MΦs (confocal microscopy) [3]
SSTNVG [Amylin 28-33, SSTNVG]	does not affect cell viability							
VQIVYK [Tau 623-628, amyloidogenic hexapeptide of tau, forms amyloid fibrils]		neither Tau 623-628, nor Amylin 28-33 was therapeutic	~10	35	rapid, dose dependent, reduction of light emitted	induced a type 1 interferon (IFN) response	induce a different pattern of gene expression than LPS	bind and are endocytosed

From patent US20200000871A1, “B-1A LYMPHOCYTE AND/OR MACROPHAGE TARGETING AND ACTIVATION TO TREAT MEDICAL CONDITIONS WITH INFLAMMATORY OR AUTOIMMUNE COMPONENTS” (THE BOARD OF TRUSTEES OF THE LELAND STANFORD JUNIOR …, priority 2015, published 2020)
